Converted amounts (≈) assume the structure as drawn.
How the values were obtained:
[1] = Cytotoxicity against mouse RAW264 cells assessed as cell viability after 24 hrs by MTT assay; format: functional, cell-based
C6 = assay: Cytotoxicity against rat C6 cells assessed as cell viability after 24 hrs by MTT assay; format: functional, cell-based; settings: C6, 24 h
[2] = Mus musculus, RAW264.7, 24 h, read-out: IC50

Compound	IC50 ([1]; raw264)	IC50 (C6)	IC50 [1, 2]
CC(C)C1=CC(=O)N/C1=C\[C@@H](C)[C@H]1CC[C@H]2C3=CC[C@H]4C[C@H](N)CC[C@]4(C)[C@H]3CC[C@]12C [PLAKINAMINE G]	Not Active	6.8 µg/mL (≈ 15.6 µM)	
CC(C)C1CCNC1C[C@@H](C)[C@H]1CC[C@H]2C3=CC[C@H]4C[C@H](N)CC[C@]4(C)[C@H]3CC[C@]12C (stereo partly drawn) [TETRAHYDROPLAKINAMINE A]	Not Active	1.4 µg/mL (≈ 3.28 µM)	
CC1=C(/C=C/[C@@H](C)[C@H]2CC[C@H]3C4=CC[C@H]5C(=O)[C@@H](N(C)C)CC[C@]5(C)[C@H]4CC[C@]23C)CCNC1 [PLAKINAMINE H]		9 µg/mL (≈ 19.4 µM)	61 µg/mL (≈ 131 µM)
CC1=C(/C=C/[C@@H](C)[C@H]2CC[C@H]3C4=CC[C@H]5[C@H](O)[C@H](N)CC[C@]5(C)[C@H]4CC[C@]23C)CCN(C)C1 [4ALPHA-HYDROXYDEMETHYLPLAKINAMINE B]		26.1 µg/mL (≈ 57.7 µM)	16.2 µg/mL (≈ 35.8 µM)

From ChEMBL document CHEMBL1150619, “Minor steroidal alkaloids from the marine sponge Corticium sp” (J Nat Prod, 2002)
